For twelve molecules, IC50 results are on record in patent publication US20170334899A1, “AMINO-SUBSTITUTED ISOTHIAZOLES” (Bayer Pharma Aktiengesellschaft, priority 2014, published 2017).

The structures appear in SMILES notation. pIC50: −log10 of the molar value. Bounds are passed on as bounds.

The target in the test is T1, human kinase Mps-1 (Homo sapiens, UniProt P33981).
T1 construct: N-terminally GST-tagged human full length recombinant Mps-1 kinase; GST (N); purchased Invitrogen, Karslruhe, Germany PV4071
T1 sequence (P33981 1-857): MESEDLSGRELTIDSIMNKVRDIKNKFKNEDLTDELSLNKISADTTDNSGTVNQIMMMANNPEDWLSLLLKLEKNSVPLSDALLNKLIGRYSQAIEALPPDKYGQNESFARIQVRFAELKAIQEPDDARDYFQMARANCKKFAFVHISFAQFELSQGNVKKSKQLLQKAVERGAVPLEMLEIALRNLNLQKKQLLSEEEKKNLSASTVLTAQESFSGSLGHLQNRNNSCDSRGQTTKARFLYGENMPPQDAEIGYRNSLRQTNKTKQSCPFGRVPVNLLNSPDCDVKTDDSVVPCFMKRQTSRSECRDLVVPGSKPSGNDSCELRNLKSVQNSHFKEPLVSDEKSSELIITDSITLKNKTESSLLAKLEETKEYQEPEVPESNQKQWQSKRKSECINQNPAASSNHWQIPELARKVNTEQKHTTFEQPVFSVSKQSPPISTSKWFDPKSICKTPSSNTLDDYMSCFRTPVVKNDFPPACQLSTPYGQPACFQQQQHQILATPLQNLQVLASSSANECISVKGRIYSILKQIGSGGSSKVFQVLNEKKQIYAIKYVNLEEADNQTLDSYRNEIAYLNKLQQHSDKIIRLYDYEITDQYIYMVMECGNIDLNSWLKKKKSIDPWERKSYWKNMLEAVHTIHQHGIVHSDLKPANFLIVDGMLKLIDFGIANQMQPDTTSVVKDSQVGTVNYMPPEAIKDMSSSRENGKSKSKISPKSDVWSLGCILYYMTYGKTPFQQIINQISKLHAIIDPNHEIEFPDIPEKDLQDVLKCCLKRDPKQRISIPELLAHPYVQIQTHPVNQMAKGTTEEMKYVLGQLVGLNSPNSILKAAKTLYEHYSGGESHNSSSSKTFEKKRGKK
Briefly: Mps-1 kinase assay (TR-FRET). It is filed as biochemical. To be noted: Mps-1 TR-FRET kinase assay; avg; read-out: Mps1 avg (IC50 [mol/l]). The method, boiled down:
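GST-tagged full-length recombinant human Mps-1 (~0.5 nM) pre-incubated 15 min with compound, then reacted 60 min at 22 °C with 10 μM ATP and 1 μM biotinylated peptide in Hepes pH 7.7 buffer. EDTA-stopped; TR-FRET (Eu anti-phospho-Ser/Thr to SA-XLent) 665/620 nm ratio normalised to no-inhibitor and no-enzyme controls.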
With `CNC(=O)c1ccc(NC(=O)c2c(C)nsc2Nc2cnc3ccccc3n2)cc1F` [Example 207, N-[3-fluoro-4-(methylcarbamoyl)phenyl]-3-methyl-5-(quinoxalin-2-ylamino)-1,2-thiazole-4-carboxamide], the pIC50 is less than 4.70.

As for `Cc1nsc(Nc2cncc(C(F)(F)F)n2)c1C(=O)Nc1ccc(OCCCNC(=O)OC(C)(C)C)nc1` [Example 190, tert-butyl {3-[(5-{[(3-methyl-5-{[6-(trifluoromethyl)pyrazin-2-yl]amino}-1,2-thiazoL-4-yl)carbonyl]amino}pyridin-2-yl)oxy]propyl}carbamate], the pIC50 is less than 4.70.

Consider `Cc1nsc(Nc2cncc(C(F)(F)F)n2)c1C(=O)Nc1ccc(OC2CCN(CCF)CC2)c(F)c1` [Example 223, N-(3-fluoro-4-{[1-(2-fluoroethyl)piperidin-4-yl]oxy}phenyl)-3-methyl-5-{[6-(trifluoromethyl)pyrazin-2-yl]amino}-1,2-thiazole-4-carboxamide], for which the pIC50 is less than 4.70.

Take `Cc1nsc(Nc2cnc3ccccc3n2)c1C(=O)Nc1ccc(OC2CCN(CC(F)F)CC2)nc1` [Example 20, N-(6-{[1-(2,2-difluoroethyl)piperidin-4-yl]oxy}pyridin-3-yl)-3-methyl-5-(quinoxalin-2-ylamino)-1,2-thiazole-4-carboxamide]: the pIC50 was not above 4.70.

`CC(=O)Nc1cc(NC(=O)c2c(C)nsc2Nc2cnccn2)ccc1F` [Example 205, N-(3-acetamido-4-fluorophenyl)-3-methyl-5-(pyrazin-2-ylamino)-1,2-thiazole-4-carboxamide]: the pIC50 is less than 4.70.

In the case of `Cc1nsc(Nc2cnc(C(F)(F)F)cn2)c1C(=O)Nc1ccc(OCC2CCN(C(=O)OC(C)(C)C)CC2)nc1` [Example 227, tert-butyl 4-{[(5-{[(3-methyl-5-{[5-(trifluoromethyl)pyrazin-2-yl]amino}-1,2-thiazol-4-yl)carbonyl]amino}pyridin-2-yl)oxy]methyl}piperidine-1-carboxylate], the pIC50 is less than 4.70.

With `Cc1nsc(Nc2cnc(C(F)(F)F)cn2)c1C(=O)Nc1ccc(OCCNC(=O)OC(C)(C)C)c(F)c1` [Example 215, tert-butyl [2-(2-fluoro-4-{[(3-methyl-5-{[5-(trifluoromethyl)pyrazin-2-yl]amino}-1,2-thiazol-4-yl)carbonyl]amino}phenoxy)ethyl]carbamate], the pIC50 was less than 4.70.

Regarding `Cc1nsc(Nc2cncc(C(F)(F)F)n2)c1C(=O)Nc1ccc(F)c(C(N)=O)c1` [Example 204, N-(3-carbamoyl-4-fluorophenyl)-3-methyl-5-{[6-(trifluoromethyl)pyrazin-2-yl]amino}-1,2-thiazole-4-carboxamide], the pIC50 was 4.77.

Turning to `Cc1nsc(Nc2cncc(C(F)(F)F)n2)c1C(=O)Nc1ccc(OCCNC(=O)OC(C)(C)C)nc1` [Example 191, tert-butyl {2-[(5-{[(3-methyl-5-{[6-(trifluoromethyl)pyrazin-2-yl]amino}-1,2-thiazol-4-yl)carbonyl]amino}pyridin-2-yl)oxy]ethyl}carbamate], the pIC50 is less than 4.70.

For `Cc1nsc(Nc2cncc(C(F)(F)F)n2)c1C(=O)Nc1ccc(OC2CCCN(C(=O)OC(C)(C)C)C2)nc1` (stereo not drawn) [Example 189, tert-butyl 3-[(5-{[(3-methyl-5-{[6-(trifluoromethyl)pyrazin-2-yl]amino}-1,2-thiazol-4-yl)carbonyl]amino}pyridin-2-yl)oxy]piperidine-1-carboxylate], the pIC50 was less than 4.70.

As for `Cc1nsc(Nc2cnc(C(F)(F)F)cn2)c1C(=O)Nc1ccc(C(=O)NCCN2CCCC(F)C2)cc1` (stereo not drawn) [Example 213, N-(4-{[2-(3-fluoropiperidin-1-yl)ethyl]carbamoyl}phenyl)-3-methyl-5-{[5-(trifluoromethyl)pyrazin-2-yl]amino}-1,2-thiazole-4-carboxamide], the pIC50 was less than 4.70.

As to `Cc1nsc(Nc2cnc3ccccc3n2)c1C(=O)Nc1ccc(Oc2ccc(SC(F)(F)F)cc2)nc1` [Example 233, 3-methyl-5-(quinoxalin-2-ylamino)-N-(6-{4-[(trifluoromethyl)sulfanyl]phenoxy}pyridin-3-yl)-1,2-thiazole-4-carboxamide], the pIC50 was less than 4.70.
